The source of these data is patent US20260151518A1, “LEUKOCYTE-SPECIFIC CELL PENETRATING MOLECULES” (Amytrx Therapeutics, Inc., priority 2021, published 2026).

For one series, the system named is Human whole blood (WB). The series can be described thus: Flow cytometry of human whole blood incubated with FITC-labelled peptide. It is filed as cell-based. The protocol: It was originally believed that the SSHR on AMTX-100 could enter cells without a receptor, energy or endocytosis. However, in studies performed by the present inventors, an AMTX-100-related peptide with a double-null knockout for Importin α/Importin β complex and Importin β obtained by amino acid substitution and also containing a FITC molecule (FITC-SMTX-100), was incubated with human blood and analyzed by flow cytometry.
Because there appeared to be a concentration of radioactivity in organs with immune cells, a series of flow cytometry experiments was initiated with human blood. All cells were first stained with FITC-AMTX-100 and then incubated with immunotyping reagents that separated hematopoietic cells into broad categories of RBCs, granulocytes, monocytes, B- and T-lymphocytes, and NK cells. […] Again, a highly unexpected finding for a peptide which is “purported” to be a promiscuous, cell-penetrating, leader sequence.
Human whole blood (WB) was obtained from multiple normal donors and incubated with [FITC]-AMTX-100 at μg/mL quantities in repeat experiments ex vivo.
Panels of monoclonal antibodies labeled with fluorescent dyes were used to phenotypically identify [FITC]-AMTX-100 penetrated WB cells including classical monocytes, non-classical monocytes, neutrophils, basophils, eosinophils, and T- and B-lymphocytes and NK cells (FIG. 4A-B). […]

Series [1] is described as follows: Pharmacokinetics of [3H]-AMTX-100 after multiple routes of administration. Particulars: rats, [3H]-AMTX-100. Format: in vivo, rat. The protocol: AMTX-100 was radiolabeled with 3H at lysine residues and injected into Sprague-Dawley rats in a single dose by seven different routes (intravenous, subcutaneous, topical [skin], intratracheal, intraduodenal, esophageal, and oral). The rats were evaluated at various time points, up to 120 hours, by: a) blood samples were taken for pharmacokinetics (PK) by cardiac puncture; b) rats were frozen and sectioned for QWBA and/or micro-auto-radiography and histology; and c) frozen sections were made and freeze dried and exposed to phosphor-storage imaging plates and tissue radioactivity in images was quantified as tissue: blood ratios.
For all PK studies, the following definitions were used: WB=whole blood; Plasma=whole blood depleted of red blood cells; WBCD=whole blood depleted of white blood cells in which the whole blood is passed over a Pall Acrodisc filter (about 60% efficient); WBCs=the cells which bind to, and are washed off, the Pall Acrodisc filter.

Series [2] can be described thus: Pharmacokinetic study, AMTX-100 in plasma by LC-MS. Particulars: mice, sensitive to 2 ng/ml. Format: in vivo.
The subject of series [3] is animal models of lung, liver, sepsis, and metabolic syndrome induced inflammation. Particulars: intraperitoneal injections; cited from earlier work.

In the case of `CSCC[C@@H]1NC(=O)[C@H](CC(C)C)NC(=O)[C@H](CCCCN)NC(=O)[C@H](CCC(N)=O)CC(=O)[C@H](CCCNC(=N)N)NC(=O)[C@H](CCCCN)NC(=O)[C@H](CCCNC(=N)N)NC(=O)[C@H](CCC(N)=O)NC(=O)[C@H](C(C)C)NC(=O)[C@@H](NC(=O)[C@@H]2CCCN2C(=O)[C@H](C)NC(=O)[C@H](CC(C)C)NC(=O)[C@H](CC(C)C)NC(=O)[C@H](C)NC(=O)[C@H](CC(C)C)NC(=O)[C@H](CC(C)C)NC(=O)[C@@H](NC(=O)[C@H](C)NC(=O)[C@@H]2CCCN2C(=O)[C@H](CC(C)C)NC(=O)[C@H](CC(C)C)NC(=O)[C@H](C)NC(=O)[C@@H](NC(=O)[C@H](C)NC(=O)[C@H](C)N)C(C)C)C(C)C)CSSC[C@@H](C(=O)O)NC(=O)[C@@H]2CCCN2C1=O` [AMTX-100], the Leukocyte populations targeted result in the series on Human whole blood (WB) was “leukocytes (classical and non-classical monocytes, neutrophils, basophils and eosinophils)”. The “Partition of radiation in blood” value in series [1] was “partitioned to the WBCs”. For the same molecule, the “Detection of AMTX-100 in plasma depleted of RBCs and WBCs” value in series [2] is recorded as “not possible to detect”. Besides, in series [3], the “Efficacy in animal models of inflammation” value is given as “have shown efficacy”.
